# Data from US8999365B2, “Prevention of bacterial contamination” (priority 2005, dated 2015).
# Experiments:
# [1] = system: Staphylococcus epidermidis; experiment: Growth of adherent bacteria on treated surfaces in Tryptic Yeast Extract medium; type: cell-based; details: for Growth after 1 day / Growth after 5 days: cell culture IV, Tryptic Yeast Extract medium, 37° C.
# Procedure: The ability of bacteria to grow on coated and non-coated surfaces was determined by adding 4 mL of Tryptic Yeast Extract medium to each well and incubating at 37° C.
# [2] = Physicochemical properties of delmopinol (pKa, solubility of base)
# [3] = system: Staphylococcus epidermidis
# Procedure: (§1) Procedure A: The test surfaces were treated with 2 mL of the 2% aqueous solution of delmopinol HCl and left unstirred for 15 minutes at room temperature. All delmopinol solution was removed with a pipette. The wells were then thoroughly rinsed three times with 4 mL of a potassium phosphate buffer, 10 mM, pH 7.2. […] Procedure B: The test surfaces were treated with 2 mL of the 2% aqueous solution of delmopinol HCl and left overnight to dry. Microorganisms
# (§2) A fresh bacterial strain of Staphylococcus epidermidis was isolated from skin and stored in milk powder at −80° C. The day before experimental use, bacteria were transferred to blood agar and incubated in an atmosphere of 95% H2 and 5% CO2 at 37° C. overnight. Colony-forming units were collected from the blood agar and suspended in 10 mM potassium phosphate buffer, pH 7.2, to an optical density at 600 nm of 0.4, corresponding to approximately 10^8 cells/mL.
# The bacterial viability of the bacterial suspension, indicated by the vitality percentages, was assessed by fluorescence microscopy using the Live/Dead Bacterial Viability method Molecular Probes, Inc. Eugene, Oreg., USA) according to the instructions of the manufacturer. Thus, SYTO 9 (1.5 μL) and propidium iodide (1.5 μL) were mixed with 1 mL of 10 mM phosphate buffer, pH 7.2. Aliquots of 10 μL were added to 10 μL cell suspension and analysed at 1000× for green/LIVE and red/DEAD cells in the fluorescence microscope (Leitz Aristoplan microscope equipped with a halogen lamp and a 470-490 nm excitation filter).
# Four mL of the bacterial suspension was added on top of coated and non-coated test surfaces mounted in Petri dishes. The cells were allowed to adhere for 60 min at 37° C. Non-adherent cells were removed by rinsing the surfaces three times with 4 mL of the buffer solution. […] A 10 μL-aliquot of the mixture was added to the surface and analysed after 10 min incubation in the dark. Microscopic images of adherent cells were analysed from 10 fields of each disc. […]
# [4] = system: Staphylococcus epidermidis; experiment: Adhesion assay: total attached cells on delmopinol-coated discs; details: mean of Exp. I-III
# Procedure: The different materials were obtained as discs with an approximate diameter of 30 mm and a thickness of 1 mm. These discs were then mounted in the bottom of Petri dishes
# as §1, §2
# Four mL of the bacterial suspension was added on top of coated and non-coated test surfaces mounted in Petri dishes. […] A 10 μL-aliquot of the mixture was added to the surface and analysed after 10 min incubation in the dark. Microscopic images of adherent cells were analysed from 10 fields of each disc. […]
# [5] = coated versus non-coated surfaces
smiles,measurement,setting,value
"CCCC(CCC)CCCC1COCCN1CCO (stereo not shown) [delmopinol, 3-(4-propyl-heptyl)-4-(2-hydroxyethyl) morpholine]",growth of surface-associated bacteria (conclusion),[1]; [5],significantly inhibited growth
same,Growth after 1 day,[1]; stainless steel coated,no
same,Growth after 5 days,[1]; stainless steel coated,no
same,Growth after 1 day,[1]; titanium coated,no
same,Growth after 5 days,[1]; titanium coated,no
same,pKa,[2],7.1
same,"percentage viable cells, Mean",[3],9 percentage
same,viability of adherent cells on delmopinol-coated surfaces (conclusion),[3]; [5],significant reduction
same,"number of attached cells per mm^2, Mean",[4]; stainless steel coated with 2% delmopinol HCl,418 cells per mm^2
same,"number of attached cells per mm^2, Mean",[4]; titanium coated with 2% delmopinol HCl,207 cells per mm^2
